Test results reported in patent US5741781A, “Mercaptoalkanoyldipeptide compounds” (Adir et Compagnie, priority 1995, dated 1998).

Key:
[1] = molecular target: neutral endopeptidase (NEP) (Homo sapiens, UniProt P08473); assay: Inhibitory effect in vitro on neutral endopeptidase, [3H]-D-Ala2-Leu-encephalin as substrate; format: biochemical; settings: in vitro
[2] = molecular target: peptidyldipeptidase A (ACE) (Homo sapiens, UniProt P12821); assay: Inhibitory effect in vitro on peptidyldipeptidase A, Z-Phe-His-Leu as substrate; format: biochemical
peptidyldipeptidase A (ACE), sequence (P12821 30-1306, species assumed): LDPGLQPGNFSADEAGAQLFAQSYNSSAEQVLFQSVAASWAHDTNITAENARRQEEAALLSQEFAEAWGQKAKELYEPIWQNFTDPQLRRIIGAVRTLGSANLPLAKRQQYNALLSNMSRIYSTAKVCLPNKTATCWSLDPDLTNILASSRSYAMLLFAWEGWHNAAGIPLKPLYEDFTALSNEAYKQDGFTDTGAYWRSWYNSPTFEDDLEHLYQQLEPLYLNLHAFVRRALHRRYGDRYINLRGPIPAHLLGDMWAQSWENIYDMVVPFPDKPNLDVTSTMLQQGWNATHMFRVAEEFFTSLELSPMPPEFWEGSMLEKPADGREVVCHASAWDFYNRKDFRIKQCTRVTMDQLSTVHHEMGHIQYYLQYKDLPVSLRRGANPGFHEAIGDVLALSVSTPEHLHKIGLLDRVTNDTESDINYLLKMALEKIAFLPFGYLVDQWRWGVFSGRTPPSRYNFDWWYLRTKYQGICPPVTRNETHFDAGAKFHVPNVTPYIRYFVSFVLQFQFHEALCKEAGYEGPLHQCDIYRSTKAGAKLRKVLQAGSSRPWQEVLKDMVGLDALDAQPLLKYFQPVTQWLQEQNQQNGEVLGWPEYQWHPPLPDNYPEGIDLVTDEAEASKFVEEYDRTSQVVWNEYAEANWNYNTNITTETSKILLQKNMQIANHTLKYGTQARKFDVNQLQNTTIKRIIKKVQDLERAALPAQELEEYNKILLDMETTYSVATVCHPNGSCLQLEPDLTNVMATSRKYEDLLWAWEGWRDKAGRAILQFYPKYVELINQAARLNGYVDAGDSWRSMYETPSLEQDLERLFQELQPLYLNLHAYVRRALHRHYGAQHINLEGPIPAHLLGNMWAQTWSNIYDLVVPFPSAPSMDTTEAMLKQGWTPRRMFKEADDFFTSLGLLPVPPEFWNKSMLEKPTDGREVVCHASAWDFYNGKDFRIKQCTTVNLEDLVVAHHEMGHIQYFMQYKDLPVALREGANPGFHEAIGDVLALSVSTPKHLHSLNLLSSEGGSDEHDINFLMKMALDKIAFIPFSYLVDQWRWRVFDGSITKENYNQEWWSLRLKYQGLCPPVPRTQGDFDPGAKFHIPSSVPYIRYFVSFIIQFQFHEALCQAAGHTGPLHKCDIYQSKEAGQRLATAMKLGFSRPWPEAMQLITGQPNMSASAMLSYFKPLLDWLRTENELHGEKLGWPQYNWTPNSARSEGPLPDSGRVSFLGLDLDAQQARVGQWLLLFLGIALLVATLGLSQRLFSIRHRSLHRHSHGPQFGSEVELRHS
Experimental: The inhibitory properties of the compounds of the invention are measured using [^3 H]-D-Ala^2 -Leu-encephalin as substrate for neutral endopeptidase, in accordance with the protocol described by Llorens et al. (Biochem. Biophys. Res. Commun., 96, (1980), 1710 sqq), and Z-Phe-His-Leu as substrate in the case of peptidyldipeptidase A in accordance with the protocol described in Biochem. Biophys. Acta, 206, (1970), 136-142.

neutral endopeptidase (NEP), sequence (P08473 whole entry, species assumed): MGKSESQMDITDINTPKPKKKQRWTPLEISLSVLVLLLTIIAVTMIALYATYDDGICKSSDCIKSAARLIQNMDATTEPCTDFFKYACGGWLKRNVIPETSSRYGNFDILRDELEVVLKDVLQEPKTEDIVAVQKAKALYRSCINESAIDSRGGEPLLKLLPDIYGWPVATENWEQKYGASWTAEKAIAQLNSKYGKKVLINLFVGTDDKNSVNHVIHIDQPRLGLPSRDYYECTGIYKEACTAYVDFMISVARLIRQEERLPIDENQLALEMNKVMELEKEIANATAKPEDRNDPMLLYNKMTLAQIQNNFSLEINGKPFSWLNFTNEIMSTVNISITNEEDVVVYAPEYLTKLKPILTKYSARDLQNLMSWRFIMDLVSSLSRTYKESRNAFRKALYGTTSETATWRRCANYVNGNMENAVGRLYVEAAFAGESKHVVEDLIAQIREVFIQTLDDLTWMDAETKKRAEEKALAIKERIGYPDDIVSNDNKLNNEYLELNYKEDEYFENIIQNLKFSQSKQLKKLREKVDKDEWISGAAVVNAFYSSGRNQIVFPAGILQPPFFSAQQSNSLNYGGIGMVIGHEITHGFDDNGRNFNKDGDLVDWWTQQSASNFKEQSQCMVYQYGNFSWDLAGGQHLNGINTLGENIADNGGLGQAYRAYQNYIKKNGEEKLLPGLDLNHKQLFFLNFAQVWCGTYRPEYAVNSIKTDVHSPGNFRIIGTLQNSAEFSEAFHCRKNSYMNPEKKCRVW

| SMILES | IC50 [1] [nM] | IC50 [2] [nM] |
| --- | --- | --- |
| O=C(NCC(=O)N1C(c2ccccc2O)CC[C@H]1C(=O)O)C(S)Cc1ccccc1 (some centres unmarked) [Example 5, N-[N-(2-Mercapto-3-phenylpropanoyl)glycyl]-5-(ortho-hydroxyphenyl)-proline] | 1.1 ± 0.3 | 0.5 ± 0.1 |
| O=C(NCC(=O)N1C(c2ccccc2O)CC[C@H]1C(=O)O)C(S)Cc1ccc(Cl)cc1 (some centres unmarked) [Example 24] | 1.2 ± 0.4 | 0.9 ± 0.06 |
| O=C(NCC(=O)N1C(c2ccc(O)cc2)CC[C@H]1C(=O)O)C(S)Cc1ccc(O)cc1 (some centres unmarked) [Example 22, N-[N-[2-Mercapto-3-(para-hydroxyphenyl)propanoyl]glycyl]-5,(para-hydroxyphenyl)proline] | 6 ± 1 | 0.45 ± 0.05 |
| Cc1ccc(C2CC[C@@H](C(=O)O)N2C(=O)CNC(=O)C(S)Cc2ccccc2)cc1 (some centres unmarked) [Example 30, N-[N-(2-Mercapto-3-phenylpropanoyl)glycyl]-5-(para-methylphenyl)proline] | 10 ± 2 | 8.2 ± 0.5 |
| O=C(NCC(=O)N1C(c2ccccc2O)CC[C@H]1C(=O)O)C(S)Cc1ccc(O)cc1 (some centres unmarked) [Example 7, N-[N-[2-Mercapto-3-(para-hydroxyphenyl)propanoyl]glycyl]-5-(ortho-hydroxyphenyl)proline] | 4.3 ± 0.3 | 0.35 ± 0.05 |
| Nc1ccc(C2CC[C@@H](C(=O)O)N2C(=O)CNC(=O)C(S)Cc2ccc(O)cc2)cc1 (some centres unmarked) [Example 16, N-[N-[2-Mercapto-3-(para-hydroxyphenyl)propanoyl]glycyl]-5-(para-aminophenyl)proline] | 26 ± 3 | 23 ± 3 |
| COc1ccc(CC(S)C(=O)NCC(=O)N2C(c3ccccc3O)CC[C@H]2C(=O)O)cc1 (some centres unmarked) [Example 26, N-[N-[2-Mercapto-3-(para-methoxyphenyl)propanoyl]glycyl]-5-(orthohydroxyphenyl)proline] | 2.3 ± 0.3 | 0.4 ± 0.05 |
| Cc1ccc(C2CC[C@@H](C(=O)O)N2C(=O)CNC(=O)C(S)Cc2ccc(O)cc2)cc1 (some centres unmarked) [Example 32, N-[N-[2-Mercapto-3-(para-hydroxyphenyl)propanoyl]glycyl]-5-(para-methylphenyl)proline] | 5 ± 0.5 | 3.2 ± 0.4 |
| O=C(NCC(=O)N1C(c2cccc(O)c2)CC[C@H]1C(=O)O)C(S)Cc1ccc(O)cc1 (some centres unmarked) [Example 18, N-[N-[2-Mercapto-3-(para-hydroxyphenyl)propanoyl]glycyl]-5-(metahydroxyphenyl)proline] | 1.6 ± 0.3 | 0.7 ± 0.2 |
| O=C(NCC(=O)N1C(c2ccccc2)CC[C@H]1C(=O)O)C(S)Cc1ccc(O)cc1 (some centres unmarked) [Example 10, N-[N-[2-Mercapto-3-(para-hydroxyphenyl)propanoyl]glycyl]-5-phenylproline] | 3.4 ± 0.8 | 4.2 ± 0.4 |
| COc1ccc(CC(S)C(=O)NCC(=O)N2C(c3ccccc3OC)CC[C@H]2C(=O)O)cc1 (some centres unmarked) [Example 28, N-[N-[2-Mercapto-3-(para-methoxyphenyl)propanoyl]glycyl]-5-(orthomethoxyphenyl)proline] | 2.5 ± 0.6 | 2.2 ± 0.2 |
| O=C(NCC(=O)N1C(c2cccc(O)c2)CC[C@H]1C(=O)O)C(S)Cc1ccccc1 (some centres unmarked) [Example 20, N-[N-(2-Mercapto-3-phenylpropanoyl)glycyl]-5-(meta-hydroxyphenyl)proline] | 2.4 ± 0.8 | 1.4 ± 0.7 |
| Cc1ccccc1C1CC[C@@H](C(=O)O)N1C(=O)CNC(=O)C(S)Cc1ccccc1 (some centres unmarked) [Example 36, N-[N-(2-Mercapto-3-phenylpropanoyl)glycyl]-5-(ortho-methylphenyl)proline] | 4 ± 0.6 | 3.5 ± 0.6 |
| Cc1ccccc1C1CC[C@@H](C(=O)O)N1C(=O)CNC(=O)C(S)Cc1ccc(O)cc1 (some centres unmarked) [Example 34, N-[N-[2-Mercapto-3-(para-hydroxyphenyl)propanoyl]glycyl]-5-(ortho-methylphenyl)proline] | 3.1 ± 0.3 | 5.2 ± 0.5 |
| O=C(NCC(=O)N1C(c2ccccc2)CC[C@H]1C(=O)O)C(S)Cc1ccccc1 (some centres unmarked) [Example 3, N-[N-(2-Mercapto-3-phenylpropanoyl)glycyl]-5-phenylproline] | 1.6 ± 0.3 | 0.55 ± 0.05 |
| Nc1ccc(CC(S)C(=O)NCC(=O)N2C(c3ccccc3)CC[C@H]2C(=O)O)cc1 (some centres unmarked) [Example 14, N-[N-[2-Mercapto-3-(para-aminophenyl)propanoyl]glycyl]-5-phenylproline] | 1.8 ± 0.4 | 3.5 ± 0.5 |
